Assay results: patent publication US12692253B2, “Antimicrobial compounds and methods” (Curza Global, LLC, priority 2019, dated 2026)
Read-outs that look alike come from different tables or passages of the source.

Legend:
[1] = biological target: Rabbit Reticulocyte Lysate (eukaryotic protein synthesis); assay: Rabbit reticulocyte lysate luciferase assay (inhibition of eukaryotic protein synthesis); format: biochemical; conditions: read-out: Rabbit reticulocyte IC50 (μM/% inhib.)
Procedure, shortened: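 In vitro translation of luciferase control RNA in nuclease-treated rabbit reticulocyte lysate with amino acid mixture, compounds in 2-fold serial dilution, 90 minutes at 30° C. Luminescence read after luciferase reagent; % inhibition relative to water no-inhibitor controls, with no-RNA background wells.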

[2] = test system: E. coli S30 extract (bacterial protein synthesis); assay: E. coli S30 extract coupled transcription-translation luciferase assay (inhibition of bacterial protein synthesis); format: biochemical; conditions: read-out: S30 IC50 (μM/% inhib.)
Procedure, shortened: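 Coupled transcription-translation in E. coli S30 circular-DNA extract expressing luciferase from pBESTluc, with 8-point 2-fold compound dilutions; 1 hour at 37 °C, stopped at 4 °C. Luminescence read; % inhibition versus no-inhibitor wells, no-DNA wells as background.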

S. aureus (Sa) = assay: Broth microdilution minimum inhibitory concentration (MIC), CLSI; format: cell-based; conditions: for MIC: Staphylococcus aureus, read-out: Sa + bicarb MIC
Procedure, shortened: (§1)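 CLSI broth microdilution with modification: 8-point two-fold compound dilutions in CAMHB, CAMHB plus 6.25 or 25 mM sodium bicarbonate, or CAMHB plus 0–50% heat-inactivated human serum. Inoculum 5×10^4 CFU/well from log-phase cultures adjusted to 0.5 McFarland; triplicate wells.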

P. aeruginosa (Pa) = assay: as above; format: cell-based; conditions: for MIC: Pseudomonas aeruginosa, read-out: Pa MIC + bicarb
Procedure, shortened: as §1

E. coli (Ec) = assay: as above; format: cell-based; conditions: for MIC: Escherichia coli, read-out: E. coli + bicarb MIC
Procedure, shortened: as §1

A. baumannn (Ab) = assay: as above; format: cell-based; conditions: for MIC: read-out: Ab + bicarb MIC
Procedure, shortened: as §1

E. faecalis (Ef) = assay: as above; format: cell-based; conditions: for MIC: Enterococcus faecalis, read-out: Ef + bicarb MIC
Procedure, shortened: as §1

[3] = class by IC50 or % inhibition @ 1 μM
[4] = growth medium supplemented with sodium bicarbonate
[5] = growth medium with sodium bicarbonate
[6] = A. baumannn, growth medium with sodium bicarbonate

| Compound | IC50 [1, 3] [µM] | IC50 [2, 3] [µM] | MIC (S. aureus (Sa); [4]) [µg/mL] | MIC (P. aeruginosa (Pa); [4]) [µg/mL] | MIC (E. coli (Ec); [4]) [µg/mL] | MIC (A. baumannn (Ab); Acinetobacter baumannii) [µg/mL] | MIC (E. faecalis (Ef); [4]) [µg/mL] | Sa + bicarb MIC (S. aureus (Sa); [4]) | Pa MIC + bicarb (P. aeruginosa (Pa); [4]) | E. coli + bicarb MIC (E. coli (Ec); [4]) | Ab + bicarb MIC (A. baumannn (Ab); A. baumannii, growth medium supplemented with sodium bicarbonate) | Ef + bicarb MIC (E. faecalis (Ef); [4]) | IC50 ([1]; % inhibition @ 1 μM) [µM] | IC50 ([2]; % inhibition @ 1 μM) [µM] | MIC (S. aureus (Sa); [5]) [µg/mL] | MIC (P. aeruginosa (Pa); [5]) [µg/mL] | MIC (E. coli (Ec); [5]) [µg/mL] | MIC (A. baumannn (Ab); [6]) [µg/mL] | MIC (E. faecalis (Ef); [5]) [µg/mL] |
| --- | --- | --- | --- | --- | --- | --- | --- | --- | --- | --- | --- | --- | --- | --- | --- | --- | --- | --- | --- |
| CC(C)(N)C(=O)N1CCN(C(=O)Nc2ccn(-c3ccc(CCN4CC5CC5(CN)C4)c(F)c3)c(=O)n2)CC1 (stereo not drawn) [Compound 123] | ≥ 1 | < 0.5 | < 8 | > 32 | < 8 | > 32 | < 8 | – | – | – | – | – | – | – | – | – | – | – | – |
| CC(C)(N)C(=O)N1CCN(C(=O)Nc2ccn(-c3ccc(CN4CCC5(N)CC5C4)cc3)c(=O)n2)CC1 (stereo not drawn) [Compound 23] | ≥ 1 | < 0.5 | – | – | – | – | – | +++ (An MIC value (μg/mL) that is less than 8 μg/mL) | + (An MIC (μg/mL) value that is 32 μg/mL or greater) | +++ (An MIC value (μg/mL) that is less than 8 μg/mL) | + (An MIC (μg/mL) value that is 32 μg/mL or greater) | +++ (An MIC value (μg/mL) that is less than 8 μg/mL) | – | – | – | – | – | – | – |
| CC(C)(N)C(=O)N1CCN(C(=O)Nc2ccn(-c3ccc(CN4CC5CC(N)C5C4)cc3)c(=O)n2)CC1 (stereo not drawn) [Compound 42] | ≥ 1 | < 0.5 | 8 to 32 | > 32 | < 8 | > 32 | 8 to 32 | – | – | – | – | – | – | – | – | – | – | – | – |
| NCC1CN(C(=O)Nc2ccn(-c3ccc(CN4C[C@@H]5[C@@H](N)[C@@H]5C4)cc3)c(=O)n2)C1 [Compound 254] | – | – | – | – | – | – | – | – | – | – | – | – | ≥ 1 | 0.5 to 1 | > 32 | > 32 | 8 to 32 | > 32 | > 32 |
| NC[C@@H]1[C@H]2CN(CCc3ccc(-n4ccc(NC(=O)N5CCC6(CC5)CNC6)nc4=O)cc3)C[C@@H]12 [Compound 147] | ≥ 1 | ≥ 1 | < 8 | > 32 | < 8 | > 32 | > 32 | – | – | – | – | – | – | – | – | – | – | – | – |
| CC(C)N(C(C)Cc1ccc(-n2ccc(NC(=O)N3CCN(C(=O)C(C)(C)N)CC3)nc2=O)cc1)C1CC2(CC(N)C2)C1 (stereo not drawn) [Compound 196] | – | – | – | – | – | – | – | – | – | – | – | – | ≥ 1 | ≥ 1 | > 32 | > 32 | > 32 | > 32 | > 32 |
